{"source": "paper PMC9863607", "about": "“Combined Use of Antimicrobial Peptides with Antiseptics against Multidrug-Resistant Bacteria: Pros and Cons” (Pharmaceutics, 2023)", "key": {"A. baumannii 7226/16": {"test_system": "A. baumannii 7226/16", "assay": "microbe, parasite or virus in culture", "format": "cell-based, Acinetobacter baumannii", "procedure": "In this regard the test plates were preincubated for 1 h at 37 °C with 0.1% bovine serum albumin (BSA) in distilled water before use. Bacteria were grown overnight at 37 °C with shaking in 2.1% Müller–Hinton broth (MHB), and then a small aliquot was transferred into the fresh portion of the same medium for another 2–3 h on the day of the experiment to provide us with the log phase bacterial suspension. Concentration of bacterial cells in suspension was evaluated based on absorbance at 620 nm and diluted down to 1 × 10^6 CFU/mL with MHB. Equal volumes of the prepared bacterial suspension in MHB and two-fold serial dilutions of the antimicrobials in 10 mM sodium phosphate (Na-P) buffer (pH 7.4) with 0.1% BSA were mixed and incubated overnight at 37 °C. The lowest concentration where no bacterial growth was observed the next day under visual examination was considered the minimal inhibitory concentration. The test was repeated at least three times, and the final MIC value was established as a median result. Each experiment was conducted in triplicates. Terasaki microplates (10 µL end volume, V-shaped bottom; Sarstedt, Nümbrecht, Germany) were used."}, "[1]": {"test_system": "normal human dermal fibroblasts", "assay": "MTT test and/or direct cell count by light microscopy", "conditions": "for FECI, toxicity toward fibroblasts: assessed from the ½+½ and ¼+¼ MEC combinations", "excerpt": "Potential cytotoxic effects of the test substances and their combinations toward human dermal fibroblasts were observed using a MTT dye [3-(4,5-dimethylthiazol-2-yl)-2,5-diphenyltetrazolium bromide]-based test first proposed by Mosmann. MTT basically functions on the same principle as resazurin: it is reduced in metabolically active cells to the product named formazan, which differs from MTT by its properties. While MTT is yellow, formazan is blue and water-insoluble. Normal human fibroblasts initially obtained from the Pokrovsky Stem Cell Bank (Saint Petersburg, Russia) were cultured at 37 °C and 5% CO2 in DMEM medium supplemented with 10% fetal bovine serum, glutamine, and Pen-Strep. The day before, experiment cells were detached from the culture flasks using Trypsin-Versene reagent, collected into a sterile 15 mL tube, centrifuged for 10 min at 300× g to discard the previous medium, and resuspended in serum-, glutamine-, and antibiotic-free DMEM. Cells were counted using a hemocytometer; their concentration was adjusted, and they were distributed at 10,000–15,000 cells per well in 90 µL in a 96-well sterile treated flat-bottom plate and left at 37 °C and 5% CO2 overnight to properly adhere. The following day, their well-being was visually checked using an inverted light microscope, and the wells were supplied with 10 µL of the test substances or their combinations in DMEM in 10 times the final desired concentrations. Experimental samples were made in triplicates. […] At least six repeats of each type of the control samples were made. Test plates were incubated at 37 °C and 5% CO2 overnight, and 10 µL of the 5 mg/mL MTT in PBS were introduced into each well the next morning. After another 4 h of incubation at the same conditions, formed formazan crystals were dissolved by adding 110 µL of isopropanol containing 0.04 M HCl (the latter is used to “switch” phenol red pH indicator in DMEM from red to yellow). Then, each sample was thoroughly mixed by repetitive pipetting, and formazan concentration was spectrophotometrically evaluated measuring OD at 540 nm with subtraction of the background at 690 nm.\nWe resorted to the direct cell count in case the MTT test was not applicable or required verification of some sort. This idea was borrowed from the crystal violet assay for determining viability of cultured cells and is based on the fact that, once dead, adherent cells detach from the surface. Since we were not aiming to analyze a large number of samples in this manner, we simply skipped the staining step of the crystal violet assay, which is also slightly difficult and brings a risk of detaching cells during washing. We proceeded with the same protocol as for the MTT test down to the step of adding MTT dye. Then, instead, we used an inverted light microscope (magnification ×500) to calculate the number of attached cells in 10 fields of view in each experimental well of interest and compared it with the count for the 100% viability control wells. The exact effect was evaluated as viable cells (%) = mean number of adhered cells in a sample / mean number of adhered cells in 100% viability control × 100%.\nWhile analyzing toxicity toward eukaryotic cells, components were mixed in concentrations of ½ MEC (AMP) + ½ MEC (AS) (that can provide the fractional index = 1, denoting additivity, if found effective) and ¼ MEC (AMP) + ¼ MEC (AS) (that can provide the fractional index = 0.5, denoting synergy, if found effective).\nCytotoxic effects of individual substances and their combinations were also evaluated against cultured normal human dermal fibroblasts. We used MTT tests and/or light microscopy for the direct cell count."}, "[2]": {"conditions": "antiseptics and surfactants, MHB, overnight 37 °C, median of 3–4 independent experiments, prontosan as polyhexanide"}, "[3]": {"conditions": "antiseptics and surfactants, serum-free DMEM, overnight, median of 3 independent experiments, prontosan as polyhexanide, etidronic acid primarily by direct cell count"}}, "note": "Like-named read-outs stand apart in the source and are kept apart here. Peptide text beside a SMILES is read from it."}
{"molecule": "CC[C@H](C)[C@H](NC(=O)[C@H](CCCNC(=N)N)NC(=O)[C@@H](NC(=O)[C@@H]1CCCN1C(=O)[C@@H]1CCCN1C(=O)[C@H](CCCNC(=N)N)NC(=O)[C@H](CCCNC(=N)N)NC(=O)[C@H](Cc1ccccc1)NC(=O)[C@@H]1CCCN1C(=O)[C@H](CC(C)C)NC(=O)[C@H](CCCNC(=N)N)NC(=O)[C@H](Cc1ccccc1)NC(=O)[C@@H](N)CCCNC(=N)N)[C@@H](C)CC)C(=O)N[C@@H](Cc1c[nH]cn1)C(=O)N1CCC[C@H]1C(=O)N1CCC[C@H]1C(=O)N1CCC[C@H]1C(=O)N[C@@H](Cc1ccccc1)C(=O)N[C@@H](Cc1ccc(O)cc1)C(=O)N1CCC[C@H]1C(=O)N1CCC[C@H]1C(=O)N[C@@H](Cc1ccccc1)C(=O)N[C@@H](CCCNC(=N)N)C(=O)N[C@@H](CCCNC(=N)N)C(=O)N[C@@H](Cc1ccccc1)C(=O)N[C@@H](CC(C)C)C(=O)O", "note": "[ChBac3.4] (H-RFRLPFRRPPIRIHPPPFYPPFRRFL-OH; N-terminus assumed)", "values": [{"measurement": "MIC", "setting": "A. baumannii 7226/16; 7226/16, 1 h", "value": 6.2, "unit": "µM"}, {"measurement": "MECF of cytotoxic action toward normal human dermal fibroblasts", "setting": "[1]", "value": 40, "unit": "µM"}]}
{"molecule": "[O-][n+]1c(CO)c(CO)[n+]([O-])c2ccccc21", "note": "[Dioxydin]", "values": [{"measurement": "MIC", "setting": "A. baumannii 7226/16; [2]", "value": 31.2, "unit": "µg/mL"}, {"measurement": "MECF", "setting": "[1]", "value": 0.5, "unit": "mg/mL"}, {"measurement": "MECF of cytotoxic action toward normal human dermal fibroblasts", "setting": "[1]; [3]", "value": 500, "unit": "µg/mL"}]}
{"molecule": "CC(O)(P(=O)(O)O)P(=O)(O)O", "note": "[Etidronic acid]", "values": [{"measurement": "MIC", "setting": "A. baumannii 7226/16; Acinetobacter baumannii, 7226/16, antiseptics and surfactants, MHB, overnight 37 °C, median of 3–4 independent experiments, prontosan as polyhexanide, read-out: MIC", "value": 12500, "unit": "µg/mL"}, {"measurement": "MECF", "setting": "[1]", "value": "less than 2.5 mg/mL"}, {"measurement": "MECF of cytotoxic action toward normal human dermal fibroblasts", "setting": "[1]; [3]", "value": "<2500", "unit": "µg/mL"}, {"measurement": "Cytotoxic effect toward human dermal fibroblasts", "setting": "[1]; at 2.5 mg/mL", "value": "higher than 50%"}]}
{"molecule": "CC(C)C[C@H](NC(=O)[C@H](CCCNC(=N)N)NC(=O)CNC(=O)CNC(=O)[C@@H](N)CCCNC(=N)N)C(=O)N[C@H]1CSSC[C@@H](C(=O)N[C@H](C(=O)NCC(=O)N[C@@H](CCCNC(=N)N)C(N)=O)C(C)C)NC(=O)[C@H](C(C)C)NC(=O)[C@@H]2CSSC[C@H](NC(=O)[C@H](Cc3ccc(O)cc3)NC1=O)C(=O)N[C@@H](CCCNC(=N)N)C(=O)N[C@@H](CCCNC(=N)N)C(=O)N[C@@H](CCCNC(=N)N)C(=O)N[C@@H](Cc1ccccc1)C(=O)N2", "note": "[PG-1, protegrin 1]", "values": [{"measurement": "MIC", "setting": "A. baumannii 7226/16; 7226/16, 1 h", "value": 6.2, "unit": "µM"}, {"measurement": "FECI, toxicity toward fibroblasts", "setting": "[1]; B = cocamidopropyl betaine", "value": 1.0}, {"measurement": "Toxicity of (¼ MEC A + ¼ MEC B) toward human dermal fibroblasts", "setting": "[1]; B = cocamidopropyl betaine, experiment 1 of 3 (1st symbol)", "value": "+"}, {"measurement": "Toxicity of (¼ MEC A + ¼ MEC B) toward human dermal fibroblasts", "setting": "[1]; B = cocamidopropyl betaine, experiment 2 of 3 (2nd symbol)", "value": "−"}, {"measurement": "Toxicity of (¼ MEC A + ¼ MEC B) toward human dermal fibroblasts", "setting": "[1]; B = cocamidopropyl betaine, experiment 3 of 3 (3rd symbol)", "value": "−"}, {"measurement": "Toxicity of (¼ MEC A + ¼ MEC B) toward human dermal fibroblasts", "setting": "[1]; B = cocamidopropyl betaine, overall result of 3 independent experiments (square brackets)", "value": "−"}, {"measurement": "FECI, toxicity toward fibroblasts", "setting": "[1]; B = dioxydin", "value": ">1.0"}, {"measurement": "FECI, toxicity toward fibroblasts", "setting": "[1]; B = poviargolum", "value": 1.0}, {"measurement": "Toxicity of (¼ MEC A + ¼ MEC B) toward human dermal fibroblasts", "setting": "[1]; B = poviargolum, experiment 1 of 3 (1st symbol)", "value": "+"}, {"measurement": "Toxicity of (¼ MEC A + ¼ MEC B) toward human dermal fibroblasts", "setting": "[1]; B = poviargolum, experiment 2 of 3 (2nd symbol)", "value": "−"}, {"measurement": "Toxicity of (¼ MEC A + ¼ MEC B) toward human dermal fibroblasts", "setting": "[1]; B = poviargolum, experiment 3 of 3 (3rd symbol)", "value": "−"}, {"measurement": "Toxicity of (¼ MEC A + ¼ MEC B) toward human dermal fibroblasts", "setting": "[1]; B = poviargolum, overall result of 3 independent experiments (square brackets)", "value": "−"}, {"measurement": "FECI, toxicity toward fibroblasts", "setting": "[1]; B = prontosan", "value": 1.0}, {"measurement": "Magnitude of toxic effect toward human dermal fibroblasts", "setting": "[1]; at 20 μM", "value": "higher than 50%"}]}
{"molecule": "Cocamidopropyl betaine", "values": [{"measurement": "MIC", "setting": "A. baumannii 7226/16; [2]", "value": 78.1, "unit": "µg/mL"}, {"measurement": "MECF of cytotoxic action toward normal human dermal fibroblasts", "setting": "[1]; [3]", "value": 12.5, "unit": "µg/mL"}]}
